Reference: patent US20080090805A1, “CB-1 MODULATING COMPOUNDS AND THEIR USE” (ACADIA PHARMACEUTICALS INC., priority 2005, published 2008)
Where two headings read alike, the source gives them in different places.

Target: native CB1 receptors (Rattus norvegicus, UniProt P20272)
Test: CB1 receptor rat binding assay ([3H]SR141716A, rat brain membranes)
[1] = rat brain membranes, [3H]SR141716A
[2] = rat brain membranes, [3H]SR141716A, read-out: Binding rat pKi (converted)

native CB1 receptors, sequence (P20272 whole entry): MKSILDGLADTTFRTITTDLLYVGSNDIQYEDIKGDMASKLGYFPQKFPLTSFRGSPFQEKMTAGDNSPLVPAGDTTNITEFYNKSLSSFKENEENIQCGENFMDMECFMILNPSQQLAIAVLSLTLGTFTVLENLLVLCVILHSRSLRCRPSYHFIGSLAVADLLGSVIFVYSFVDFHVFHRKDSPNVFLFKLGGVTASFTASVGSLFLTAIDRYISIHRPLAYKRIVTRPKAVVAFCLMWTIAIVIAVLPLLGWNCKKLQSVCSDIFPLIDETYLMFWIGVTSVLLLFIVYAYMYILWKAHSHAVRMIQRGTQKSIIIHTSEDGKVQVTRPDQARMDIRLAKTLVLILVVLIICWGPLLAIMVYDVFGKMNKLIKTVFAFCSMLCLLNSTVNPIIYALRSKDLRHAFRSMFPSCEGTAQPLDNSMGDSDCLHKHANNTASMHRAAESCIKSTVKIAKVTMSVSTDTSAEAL

Structure (SMILES) | Binding rat Inh % [1] [%] | Ki [2] [nM] | Ki [nM]
O=C(NN1CCCCC1)c1ccc2c(c1)N=C(c1ccc(Cl)c(Cl)c1)c1ccccc1S2 [drawing 1305] | 96 | 2.51 | 
O=C(NC1CCC(F)(F)CC1)c1ccc2c(c1)N=C(c1ccc(Cl)cc1F)c1ccccc1S2 | 78 | 1 | 
O=C(NN1CCCCCC1)c1ccc2c(c1)N=C(c1ccc(Cl)cc1Cl)c1ccccc1S2 [drawing 1522] | 72 | 79.4 | 
O=C(NCc1ccc(F)cc1)c1ccc2c(c1)N=C(c1ccc(Cl)cc1)c1ccccc1S2(=O)=O [drawing 1316] |  | 25.1 | 
O=C(NCc1cccc(Cl)c1)c1ccc2c(c1)N=C(C1CCCCC1)c1cc(F)ccc1S2 |  | 10 | 
O=C(NN1CCCCC1)c1ccc2c(c1)N=C(C1CCCCC1)c1ccccc1O2 |  |  | 63.1
O=C(NCc1ccco1)c1ccc2c(c1)N=C(c1cccc(Cl)c1)c1ccccc1S2 [drawing 1448] | 85 | 7.94 | 
CCN(CCNC(=O)c1ccc2c(c1)N=C(c1ccc(Cl)cc1)c1ccccc1S2)c1ccccc1 [drawing 1489] |  | 10 | 
CCCCNC(=O)c1ccc2c(c1)N=C(c1ccc(Cl)s1)c1cc(Cl)ccc1S2 [drawing 1426] | 85 | 6.31 | 
CCCNC(=O)c1ccc2c(c1)N=C(c1cccc(Cl)c1)c1ccccc1S2 [drawing 1189] | 86 | 12.6 | 
CC(C)NC(=O)c1ccc2c(c1)N=C(c1ccc(F)cc1)c1ccccc1S2 [drawing 1429] | 80 | 50.1 | 
O=C(NCc1ccccc1)c1ccc2c(c1)N=C(N1CCCCC1)c1ccccc1S2 [drawing 1253] |  | 15.8 | 
O=C(NCc1ccccc1)c1ccc2c(c1)N=C(c1cccc(Cl)c1)c1ccccc1S2 [drawing 1328] |  | 3.16 | 
CC(CNC(=O)c1ccc2c(c1)N=C(N1CCCCC1)c1cc(F)ccc1S2)c1ccccc1 (centres unmarked) [drawing 1513] |  | 79.4 | 
O=C(NCc1ccccn1)c1ccc2c(c1)N=C(c1ccc(Cl)cc1)c1ccccc1S2 [drawing 1270] | 112 | 20 | 
O=C(NCc1ccc(F)cc1)c1ccc2c(c1)N=C(c1ccccc1F)c1ccccc1S2 [drawing 1299] |  | 20 | 
O=C(NCCc1ccccn1)c1ccc2c(c1)N=C(c1ccc(Cl)cc1)c1ccccc1S2 [drawing 1340] | 60 | 25.1 | 
C[C@@H]1CCC[C@H](C)N1NC(=O)c1ccc2c(c1)N=C(c1ccccc1F)c1ccccc1S2 [drawing 1495] | 78 | 63.1 | 
O=C(NCCCc1ccccc1)c1ccc2c(c1)N=C(c1ccccc1F)c1ccccc1S2 [drawing 1206] |  | 12.6 | 
Cc1cnc(-c2ccc3c(c2)N=C(c2ccc(Cl)cc2)c2ccccc2S3)[nH]1 [drawing 1371] | 84 | 31.6 | 
O=C(NCc1cccs1)c1ccc2c(c1)N=C(c1cccc(F)c1)c1ccccc1S2 [drawing 1384] | 95 | 5.01 | 
O=C(NCCc1ccccn1)c1ccc2c(c1)N=C(c1ccc(Cl)cc1F)c1ccccc1S2 [drawing 1398] | 74 | 39.8 | 
NS(=O)(=O)c1ccc(CNC(=O)c2ccc3c(c2)N=C(c2ccc(F)cc2)c2ccccc2S3)cc1 [drawing 1454] | 72 | 50.1 | 
Cc1ccsc1C1=Nc2cc(C(=O)NCCC(C)C)ccc2Sc2ccccc21 [drawing 1251] | 88 | 15.8 | 
O=C(NCc1cccnc1)c1ccc2c(c1)N=C(c1cccc(Br)c1)c1ccccc1S2 [drawing 1278] | 80 | 20 | 
CCCCNC(=O)c1ccc2c(c1)N=C(c1ccc(F)cn1)c1ccccc1S2 [drawing 1246] | 87 | 15.8 | 
Cc1ccsc1C1=Nc2cc(C(=O)NN3[C@H](C)CCC[C@@H]3C)ccc2Sc2ccccc21 [drawing 1530] | 65 | 79.4 | 
O=C(NC1CCC(F)(F)CC1)c1ccc2c(c1)N=C(c1ccsc1)c1ccccc1S2 | 92 | 3.16 | 
